{"source": "ChEMBL document CHEMBL1153753", "about": "“Structure-activity relationships and mechanism of action of antitumor bis 8-hydroxyquinoline substituted benzylamines” (Eur J Med Chem, 2010)", "key": {"[1]": {"test": "Disregulation of cell development related gene expression in human U87 cells assessed as change in HOXA6 mRNA level at 0.5 uM after 16 hrs by microarray analysis relative to untreated control", "type": "functional, cell-based", "conditions": "U-87MG ATCC"}, "[2]": {"test": "Disregulation of cell development related gene expression in human U87 cells assessed as change in HQXB9 mRNA level at 0.5 uM after 16 hrs by microarray analysis relative to untreated control", "type": "functional, cell-based", "conditions": "U-87MG ATCC"}, "[3]": {"test": "Disregulation of apoptosis related gene expression in human U87 cells assessed as change in E2F1 mRNA level at 0.5 uM after 16 hrs by microarray analysis relative to untreated control", "type": "functional, cell-based", "conditions": "U-87MG ATCC"}, "[4]": {"test": "Disregulation of cell survival related gene expression in human U87 cells assessed as change in BCL2L10 mRNA level at 0.5 uM after 16 hrs by microarray analysis relative to untreated control", "type": "functional, cell-based", "conditions": "U-87MG ATCC"}, "[5]": {"test": "Disregulation of inflammation related gene expression in human U87 cells assessed as change in CCL17 mRNA level at 0.5 uM after 3 hrs by microarray analysis relative to untreated control", "type": "functional, cell-based", "conditions": "U-87MG ATCC"}, "[6]": {"test": "Disregulation of apoptosis related gene expression in human U87 cells assessed as change in NOXA mRNA level at 0.5 uM after 3 hrs by microarray analysis relative to untreated control", "type": "functional, cell-based", "conditions": "U-87MG ATCC"}, "[7]": {"test": "Disregulation of cell cycle related gene expression in human U87 cells assessed as change in CCPG1 mRNA level at 0.5 uM after 16 hrs by microarray analysis relative to untreated control", "type": "functional, cell-based", "conditions": "U-87MG ATCC"}, "[8]": {"test": "Disregulation of cell cycle related gene expression in human U87 cells assessed as change in CDCA7 mRNA level at 0.5 uM after 16 hrs by microarray analysis relative to untreated control", "type": "functional, cell-based", "conditions": "U-87MG ATCC"}, "[9]": {"test": "Disregulation of cell cycle related gene expression in human U87 cells assessed as change in CDC6 mRNA level at 0.5 uM after 16 hrs by microarray analysis relative to untreated control", "type": "functional, cell-based", "conditions": "U-87MG ATCC"}, "[10]": {"test": "Disregulation of apoptosis related gene expression in human U87 cells assessed as change in BIM mRNA level at 0.5 uM after 16 hrs by microarray analysis relative to untreated control", "type": "functional, cell-based", "conditions": "U-87MG ATCC"}, "[11]": {"test": "Disregulation of inflammation related gene expression in human U87 cells assessed as change in CXCL3 mRNA level at 0.5 uM after 16 hrs by microarray analysis relative to untreated control", "type": "functional, cell-based", "conditions": "U-87MG ATCC"}, "[12]": {"test": "Disregulation of endoplasmic reticulum stress responsive gene expression in human U87 cells assessed as change in PUMA mRNA level at 0.5 uM after 16 hrs by microarray analysis relative to untreated control", "type": "functional, cell-based", "conditions": "U-87MG ATCC"}, "[13]": {"test": "Disregulation of endoplasmic reticulum stress responsive gene expression in human U87 cells assessed as change in RGS16 mRNA level at 0.5 uM after 3 hrs by microarray analysis relative to untreated control", "type": "functional, cell-based", "conditions": "U-87MG ATCC"}, "[14]": {"test": "Disregulation of cell cycle related gene expression in human U87 cells assessed as change in CDC25A mRNA level at 0.5 uM after 16 hrs by microarray analysis relative to untreated control", "type": "functional, cell-based", "conditions": "U-87MG ATCC"}, "[15]": {"test": "Cytotoxicity against human U373 cells by MTT assay", "type": "functional, cell-based, U-373MG ATCC", "conditions": "U373 MG"}, "[16]": {"test": "Disregulation of cell cycle related gene expression in human U87 cells assessed as change in cyclin D mRNA level at 0.5 uM after 16 hrs by microarray analysis relative to untreated control", "type": "functional, cell-based", "conditions": "U-87MG ATCC"}, "[17]": {"test": "Disregulation of apoptosis related gene expression in human U87 cells assessed as change in IGFBP3 mRNA level at 0.5 uM after 16 hrs by microarray analysis relative to untreated control", "type": "functional, cell-based", "conditions": "U-87MG ATCC"}, "[18]": {"test": "Disregulation of inflammation related gene expression in human U87 cells assessed as change in EREG mRNA level at 0.5 uM after 3 hrs by microarray analysis relative to untreated control", "type": "functional, cell-based", "conditions": "U-87MG ATCC"}, "[19]": {"test": "Disregulation of cell cycle related gene expression in human U87 cells assessed as change in EDN1 mRNA level at 0.5 uM after 3 hrs by microarray analysis relative to untreated control", "type": "functional, cell-based", "conditions": "U-87MG ATCC"}, "[20]": {"test": "Antiproliferative activity against human U87 cells expressing GFP after 3 days by flash-cytometry", "type": "functional, U-87MG ATCC", "conditions": "U-87 MG, 72 h, read-out: ED50 (the source's name)"}, "U-87MG ATCC [21]": {"tested_on": "U-87MG ATCC", "test": "Antiproliferative activity against human U87 cells expressing GFP assessed as reduction in cell density at 20 uM by flash-cytometry", "type": "functional, cell-based"}, "[22]": {"test": "Disregulation of DNA-damage and oxidative stress responsive gene expression in human U87 cells assessed as change in SESN2 mRNA level at 0.5 uM after 3 hrs by microarray analysis relative to untreated control", "type": "functional, U-87MG ATCC"}, "[23]": {"test": "Disregulation of apoptosis related gene expression in human U87 cells assessed as change in GDF15 mRNA level at 0.5 uM after 16 hrs by microarray analysis relative to untreated control", "type": "functional, cell-based", "conditions": "U-87MG ATCC"}, "U-87MG ATCC [24]": {"tested_on": "U-87MG ATCC", "test": "Antiproliferative activity against human U87 cells expressing GFP assessed as apparent cell death at 20 uM after 3 days by flash-cytometry", "type": "functional, cell-based"}, "[25]": {"test": "Disregulation of inflammation related gene expression in human U87 cells assessed as change in IL1F5 mRNA level at 0.5 uM after 16 hrs by microarray analysis relative to untreated control", "type": "functional, cell-based", "conditions": "U-87MG ATCC"}, "[26]": {"test": "Disregulation of endoplasmic reticulum stress responsive gene expression in human U87 cells assessed as change in ARN1 mRNA level at 0.5 uM after 16 hrs by microarray analysis relative to untreated control", "type": "functional, cell-based", "conditions": "U-87MG ATCC"}, "[27]": {"test": "Disregulation of cell cycle related gene expression in human U87 cells assessed as change in cyclin F mRNA level at 0.5 uM after 16 hrs by microarray analysis relative to untreated control", "type": "functional, cell-based", "conditions": "U-87MG ATCC"}, "[28]": {"test": "Disregulation of inflammation related gene expression in human U87 cells assessed as change in IL1A mRNA level at 0.5 uM after 16 hrs by microarray analysis relative to untreated control", "type": "functional, cell-based", "conditions": "U-87MG ATCC"}, "[29]": {"test": "Disregulation of cell cycle related gene expression in human U87 cells assessed as change in CDK2 mRNA level at 0.5 uM after 16 hrs by microarray analysis relative to untreated control", "type": "functional, cell-based", "conditions": "U-87MG ATCC"}, "[30]": {"test": "Disregulation of inflammation related gene expression in human U87 cells assessed as change in IL6 mRNA level at 0.5 uM after 16 hrs by microarray analysis relative to untreated control", "type": "functional, cell-based", "conditions": "U-87MG ATCC"}, "[31]": {"test": "Disregulation of endoplasmic reticulum stress responsive gene expression in human U87 cells assessed as change in ATF3 mRNA level at 0.5 uM after 16 hrs by microarray analysis relative to untreated control", "type": "functional, cell-based", "conditions": "U-87MG ATCC"}, "[32]": {"test": "Disregulation of endoplasmic reticulum stress responsive gene expression in human U87 cells assessed as change in ATF4 mRNA level at 0.5 uM after 16 hrs by microarray analysis relative to untreated control", "type": "functional, cell-based", "conditions": "U-87MG ATCC"}, "[33]": {"test": "Disregulation of inflammation related gene expression in human U87 cells assessed as change in IFRD1 mRNA level at 0.5 uM after 16 hrs by microarray analysis relative to untreated control", "type": "functional, cell-based", "conditions": "U-87MG ATCC"}, "[34]": {"test": "Disregulation of cell survival related gene expression in human U87 cells assessed as change in FGF18 mRNA level at 0.5 uM after 16 hrs by microarray analysis relative to untreated control", "type": "functional, cell-based", "conditions": "U-87MG ATCC"}, "[35]": {"test": "Disregulation of cell development related gene expression in human U87 cells assessed as change in ISL2 mRNA level at 0.5 uM after 16 hrs by microarray analysis relative to untreated control", "type": "functional, cell-based", "conditions": "U-87MG ATCC"}}, "note": "Activity calls are given as the source filed them. The calls are words filed in the database; no cut-off is given here."}
{"smiles": "Cc1ccc(CN(Cc2ccc(O)c3ncccc23)Cc2ccc(O)c3ncccc23)cc1", "values": [{"measurement": "fold change (FC)", "setting": "[1]", "value": 3}, {"measurement": "fold change (FC)", "setting": "[2]", "value": 3}, {"measurement": "fold change (FC)", "setting": "[3]", "value": 3}, {"measurement": "fold change (FC)", "setting": "[4]", "value": 3}, {"measurement": "fold change (FC)", "setting": "[5]", "value": "> 1.4"}, {"measurement": "fold change (FC)", "setting": "[6]", "value": "> 1.4"}, {"measurement": "fold change (FC)", "setting": "[7]", "value": 3}, {"measurement": "fold change (FC)", "setting": "[8]", "value": 3}, {"measurement": "fold change (FC)", "setting": "[9]", "value": 3}, {"measurement": "fold change (FC)", "setting": "[10]", "value": 3}, {"measurement": "fold change (FC)", "setting": "[11]", "value": 3}, {"measurement": "fold change (FC)", "setting": "[12]", "value": 3}, {"measurement": "fold change (FC)", "setting": "[13]", "value": "> 1.4"}, {"measurement": "fold change (FC)", "setting": "[14]", "value": 3}, {"measurement": "IC50", "setting": "[15]", "value": 53, "unit": "nM"}, {"measurement": "fold change (FC)", "setting": "[16]", "value": 3}, {"measurement": "fold change (FC)", "setting": "[17]", "value": 3}, {"measurement": "fold change (FC)", "setting": "[18]", "value": "> 1.4"}, {"measurement": "fold change (FC)", "setting": "[19]", "value": "> 1.4"}, {"measurement": "EC50", "setting": "[20]", "value": "< 200", "unit": "nM"}, {"measurement": "Activity", "setting": "U-87MG ATCC [21]", "value": "Active"}, {"measurement": "fold change (FC)", "setting": "[22]", "value": ">1.4"}, {"measurement": "fold change (FC)", "setting": "[23]", "value": 3}, {"measurement": "Activity", "setting": "U-87MG ATCC [24]", "value": "inactive"}, {"measurement": "fold change (FC)", "setting": "[25]", "value": 3}, {"measurement": "fold change (FC)", "setting": "[26]", "value": 3}, {"measurement": "fold change (FC)", "setting": "[27]", "value": 3}, {"measurement": "Activity", "setting": "[28]", "value": "Active"}, {"measurement": "fold change (FC)", "setting": "[29]", "value": 3}, {"measurement": "fold change (FC)", "setting": "[30]", "value": 3}, {"measurement": "Activity", "setting": "[31]", "value": "Active"}, {"measurement": "fold change (FC)", "setting": "[32]", "value": 3}, {"measurement": "fold change (FC)", "setting": "[33]", "value": 3}, {"measurement": "fold change (FC)", "setting": "[34]", "value": 3}, {"measurement": "fold change (FC)", "setting": "[35]", "value": 3}]}
